Experimental findings from patent US6486199B1, “Spiro and dispiro 1,2,4-trioxolane antimalarials” (Medicines for Malaria Venture MMV International Centre …, priority 2001, dated 2002) are described below.

Data set [1] in a line: differential scanning calorimetry (DSC), thermal stability. It is filed as physicochemical. Particulars: thermal decomposition. (In general: Differential scanning calorimetry records heat flow against a reference as temperature is scanned.)
In data set [2] the test system is chloroquine-resistant K1 strain of P. falciparum. The data set can be described thus: in vitro screen against chloroquine-resistant K1 strain of P. falciparum. It is filed as cell-based. Conditions: for IC50: Plasmodium falciparum; for in vitro potency: strains not distinguished.
Data set [3] has as its system ANKA strain of P. Berghei. The data set is described as follows: single dose STI in vivo screen in infected Moro SPF mice. Conditions: for antimalarial activity, overall assessment: overall judgement of in vitro and in vivo data of Table 2; for inhibition in vivo at 10 mg/kg: Plasmodium berghei, 72 h; for inhibition in vivo at 10 mg/kg / Activity (%) po / Activity (%) sc: percent reduction in parasitemia day 3 post-infection; for in vivo activity: 10 mg/kg po/sc data of Table 2.

Data set [4] has as its system chloroquine-sensitive NF54 strain of P. falciparum. The data set is described as follows: in vitro screen against chloroquine-sensitive NF54 strain of P. falciparum. It is filed as cell-based. Conditions: for IC50: Plasmodium falciparum.
The mark [5] stands for this setting: NF54, read-out: IC50 (ng/ml) NF54.
[6] abbreviates: in vitro, K1 strain, read-out: IC50 (ng/ml) K1.
Setting [7] is: in vitro, NF54 strain, read-out: IC50 (ng/ml) NF54.

In brackets after ≈: the same amount, converted by molar mass. Read-outs that look alike come from different tables or passages of the source.

`C1CCC2(CC1)OOC1(CCC3(CC1)OOC1(CCCCC1)O3)O2` (stereo not shown) [OZ09, 7,12,19,20,23,24-Hexaoxatetraspiro[5.1.2.1.5.2.2.2]tetracosane]: the “Tm dec. (° C.)” value in data set [1] amounted to 196.5 °C. Besides, the IC50 was found to be 32 ng/mL (≈ 0.094 µM) in data set [2] (K1, read-out: IC50 (ng/ml) K1) and 39 ng/mL (≈ 0.115 µM) in data set [4] (setting [5]). The “antimalarial activity, overall assessment” value (shortened to “antimalarial activity”) in data set [3] is listed as “less active”.

As to `Cc1ccc(S(=O)(=O)NN=C2CCC3(CC2)OOC2(O3)C3CC4CC(C3)CC2C4)cc1` (stereo not shown) [OZ39, Adamantane-2-spiro-3′-1′,2′,4′-trioxaspiro[4.5]decan-8′-one tosylhydrazone], the “Tm dec. (° C.)” value in data set [1] is 146.9 °C. Besides, the IC50 in data set [2] (setting [6]) is 1.4 ng/mL (≈ 0.00314 µM); in data set [2] (in vitro, K1 and NF54 strains not distinguished, read-out: IC50) it was below 2 ng/mL; in data set [4] (setting [7]) it was 1.8 ng/mL (≈ 0.00403 µM). Moreover, the inhibition in vivo at 10 mg/kg is 61% in data set [3] (single 10 mg/kg po, read-out: Activity (%) po) and 99.3% in data set [3] (single 10 mg/kg sc, read-out: Activity (%) sc).

With `CCOC(=O)CC1CCC2(CC1)OOC1(O2)C2CC3CC(C2)CC1C3` (stereo not shown) [OZ61, Adamantane-2-spiro-3′-8′-ethoxycarbonylmethyl-1′,2′,4′-trioxaspiro[4.5]decane], in data set [1], the “Tm dec. (° C.)” value turned out to be 161.7 °C. Also, the “IC50 (ng/ml) K1” value in data set [2] (in vitro, K1 strain) stood at 0.52 ng/mL (≈ 0.00148 µM). Besides, the “in vivo activity” value in data set [3] was “modest”. Moreover, the “IC50 (ng/ml) NF54” value in data set [4] (in vitro, NF54 strain) was 0.53 ng/mL (≈ 0.00151 µM).

Take `c1ccc(C2CCC3(CC2)OOC2(CCC(c4ccccc4)CC2)O3)cc1` (stereo not shown) [OZ62, 3,11-Diphenyl-7,14,15-trioxadispiro[5.1.5.2]pentadecane]: in data set [1], the “Tm dec. (° C.)” value was 201.0 °C. Also, the figures for the IC50 in data set [2] (setting [6]) and in data set [4] (setting [7]) were 33 ng/mL (≈ 0.0905 µM) and 28 ng/mL (≈ 0.0768 µM), respectively. Besides, the “Activity (%) po” value in data set [3] (single 10 mg/kg po) is recorded as 0/0%. Moreover, the “Activity (%) sc” value in data set [3] (single 10 mg/kg sc) was 0/0%.

Consider `Fc1ccc(C2(c3ccc(F)cc3)OOC3(CCC(c4ccccc4)CC3)O2)cc1` (stereo not shown) [OZ66, 3,3-Bis(4-fluorophenyl)-8-phenyl-1,2,4-trioxaspiro[4.5]decane], for which the “Tm dec. (° C.)” value in data set [1] worked out at 198.5 °C. The values for the IC50 in data set [2] (setting [6]) and in data set [4] (setting [7]) were 44 ng/mL (≈ 0.108 µM) and 36 ng/mL (≈ 0.0881 µM), respectively. In data set [3], the “antimalarial activity” value was “completely inactive”. In addition, in data set [3] (single 10 mg/kg po), the “Activity (%) po” value is 0/0%. The “Activity (%) sc” value in data set [3] (single 10 mg/kg sc) is listed as 0/0%.

Regarding `CCOC(=O)C1CCC2(CC1)OOC1(O2)C2CC3CC(C2)CC1C3` (stereo not shown) [OZ70, Adamantane-2-spiro-3′-8′-ethoxycarbonyl-1′,2′,4′-trioxaspiro[4.5]decane], the “Tm dec. (° C.)” value in data set [1] was 162.8 °C. Further, the “IC50 (ng/ml) K1” value in data set [2] (in vitro, K1 strain) turned out to be 1.2 ng/mL (≈ 0.00357 µM). For the same compound, the “Survival (days) po” value in data set [3] (single 10 mg/kg po) is reported as 7.7/7.7 days. Also, in data set [3] (single 10 mg/kg sc), the “Survival (days) sc” value is given as 7.7/7.7 days. Also, the “IC50 (ng/ml) NF54” value in data set [4] (in vitro, NF54 strain) was 1.1 ng/mL (≈ 0.00327 µM).

On to `O=C(O)CC1CCC2(CC1)OOC1(O2)C2CC3CC(C2)CC1C3` (stereo not shown) [OZ78, Adamantane-2-spiro-3′-8′-carboxymethyl-1′,2′,4′-trioxaspiro[4.5]decane], for which the “Tm dec. (° C.)” value in data set [1] stood at 157.5 °C. The “IC50 (ng/ml) K1” value in data set [2] (in vitro, K1 strain) is recorded as >10/>10 ng/ml. Further, the “in vitro potency” value in data set [2] (in vitro) is “only weakly active”. Also, the “in vivo activity” value in data set [3] is on record as “promising”. Moreover, the “IC50 (ng/ml) NF54” value in data set [4] (in vitro, NF54 strain) is given as >10/>10 ng/ml.

On to `C1CC2(CCN1)OOC1(O2)C2CC3CC(C2)CC1C3.Cl` (stereo not shown) [OZ80, Adamantane-2-spiro-3′-1′,2′,4′-trioxa-8′-azaspiro[4.5]decane hydrochloride], for which the “Tm dec. (° C.)” value in data set [1] turned out to be 129.8 °C. Besides, the IC50 was below 0.16 ng/mL in data set [2] (K1, read-out: IC50 (ng/ml) K1) and 0.34 ng/mL in data set [4] (setting [5]). Further, the “in vitro potency” value in data set [2] (in vitro) is “quite potent”. For the same compound, the “in vivo activity” value in data set [3] is “modest”.

As for `c1ccc(C2(c3ccccn3)OOC3(O2)C2CC4CC(C2)CC3C4)nc1` (stereo not shown) [OZ81, Adamantane-2-spiro-3′-5′,5′-bis(2′-pyridyl)-1′,2′,4′-trioxolane], the “Tm dec. (° C.)” value in data set [1] amounted to 150.7 °C. Moreover, the “IC50 (ng/ml) K1” value in data set [2] (in vitro, K1 strain) is recorded as >10/>10 ng/ml. Also, the “antimalarial activity” value in data set [3] was “inactive”. In data set [3] (single 10 mg/kg po), the “Activity (%) po” value was 0/0%. The “Activity (%) sc” value in data set [3] (single 10 mg/kg sc) is reported as 0/0%. In addition, in data set [4] (in vitro, NF54 strain), the “IC50 (ng/ml) NF54” value is recorded as >10/>10 ng/ml.
